On the set-up of data set [1]: method as in Hindley et al., 2023. The settings on record: ref Hindley et al., 2023; cited from earlier work.
Details of data set [2]: method as in Kvasnicka et al., 2017. The conditions noted are these: ref Kvasnicka et al., 2017; cited from earlier work.
For the next data set, the system named is CYP3A4/5. More on the design: method as in Mueck et al., 2013. The settings on record: ref Mueck et al., 2013; cited from earlier work.
The test system of data set [3] is Abcb1a (P-gp) mRNA in the intestines. The data set is described as follows: qRT-PCR mRNA expression in rat intestine after ribociclib. It is filed as in vivo. The conditions noted are these: rats, ribociclib continuously for 8 days. The source says:
(§1) qRT-PCR analysis was used to determine the mRNA levels of Cyp3a1(CYP3A4) in the liver and Abcb1a (P-gp), Cyp3a1(CYP3A4), Abcg2(BCRP) in the intestines. Total RNA was extracted from frozen liver and intestine samples using the TRNzol Universal reagent, following the manufacturer’s instructions. The Bio Tek Epoch (Bio Tek Instruments, Inc., Winooski, VT, United States) was used to quantify the purity and concentration of the total RNA, based on the ratio of the absorbance at 260 and 280 nm. The RNA samples, each containing 1 µg of material, were converted to complementary DNA (cDNA) using the FastKing RT Kit. The real-time PCR assays were performed using a two-step amplification protocol on the SLAN-96S Real-Time PCR system (Shanghai Hongshi Medical Technology Co., Ltd., Shanghai, China). […] was employed as an internal control, and the PCR cycling criteria were as follows: 95°C for 15 min, followed by 40 cycles of 95°C for 10 s and 60°C for 32 s.

The subject of data set [4] is Abcg2(BCRP) mRNA in the intestines. Described as above. It is filed as in vivo. The conditions noted are these: rats, ribociclib continuously for 8 days.
Text: as §1

The test system of data set [5] is Cyp3a1(CYP3A4) mRNA in the intestines. The data set is described as above. It is filed as in vivo. The conditions noted are these: rats, ribociclib continuously for 8 days.
Text: as §1

Data set [6] can be described thus: Stability of ribociclib QC samples in rat plasma. It counts as in vitro ADME. The conditions noted are these: room temperature, autosampler 15°C, −80°C, three freeze-thaw cycles. As for the experimental part:
The method was validated per the guidelines of the Food and Drug Administration (US-FDA, 2022) and Chinese Pharmacopoeia (2020). Selectivity was determined by analyzing blank plasma samples from six different batches of rats and plasma samples from six different batches of rats after administration of ribociclib. There should be no interference, with retention times such that the blank plasma peak area is less than 5% of the internal standard (IS) and less than 20% of the lower limit of quantification (LLOQ). The calibration curves were evaluated using 10–4,000 ng/mL of ribociclib. Linearity was assessed by plotting the peak area ratios of the analyte to the IS against nominal concentrations, using weighted (1/x^2) least-squares linear regression. Accuracy and precision were determined for all concentrations derived from the calibration curves, ensuring that deviations were within 15% of the nominal concentration, except for the LLOQ, where the deviation should not exceed 20%. Precision and accuracy were assessed by analyzing plasma samples at low, medium, high, and LLOQ concentration levels over three consecutive days. The final precision and accuracy were determined by calculating the relative standard deviation (RSD) and relative error (RE) of the six samples. RSD and RE for QC concentrations were required to be within ±15%, and for the LLOQ, within ±20%. […]

The subject of a further data set is CYP3A4. Set-up: method as in Sorf et al., 2018. The conditions noted are these: in vitro; ref Sorf et al., 2018; read-out: half-maximal inhibitory concentration (IC50) against CYP3A4; cited from earlier work.
Details of data set [7]: method as in Samant et al., 2020. The conditions noted are these: ref Samant et al., 2020, cited from earlier work.

In the case of `O=C(NC[C@H]1CN(c2ccc(N3CCOCC3=O)cc2)C(=O)O1)c1ccc(Cl)s1` [RIVA, rivaroxaban], the plasma protein binding result in [1] was “approximately 95%”. The “time to maximum plasma concentration (Cmax) after administration” value in data set [2] is 2 to 4 h. The “share of total elimination by CYP3A4/5” value in the data set with CYP3A4/5 was “approximately 18%”.

In the case of `CN(C)C(=O)c1cc2cnc(Nc3ccc(N4CCNCC4)cn3)nc2n1C1CCCC1` [RIBO, ribociclib], the “mRNA expression of Abcb1a in the intestine” value in [3] was “no significant changes”. In addition, the “inhibition rate of intestinal Abcg2 mRNA expression” value in [4] came out at 45.0%. Moreover, the “inhibition rate of intestinal Cyp3a1 mRNA expression” value in data set [5] stood at 82.6%. Also, the “stability of QC samples” value in data set [6] was “excellent stability”. Further, the IC50 with CYP3A4 was […]. Also, in data set [7] (with rifampicin, a strong CYP3A inducer), the “reduction of AUC” value is on record as 89%. For the same compound, the “increase of AUC” value in [7] (with ritonavir, a strong CYP3A inhibitor) is recorded as 3.2 fold.

(Values after PMC11994961, “In Vivo pharmacokinetic interactions of ribociclib with rivaroxaban and apixaban in rats: implications for increased drug exposure and dose adjustments” (Frontiers in Pharmacology, 2025).)
